# “Also recorded” adds a separate entry of the source.
# How the values were obtained:
# Z138 target cells = experiment: Two-stimulation killing assay, PBMCs + Z138 target cells + CD20-TCB; assay type: cell-based, human; details: 100 nM dasatinib upon re-stimulation; 1 nM CD20-TCB
# Procedure: FIG. 23. In vitro killing assay set-up and timelines. PBMCs were co-cultured with carboxyfluorescein succinimidyl ester (CFSE) labelled Z138 target cells (E:T=5:1) and […] 1 nM CD20-TCB for 20h. Activated PBMCs were washed and restimulated on fresh, CTV labelled Z138 target cells (E:T=5:1) and 1 nM CD20-TCB in the presence or absence of 100 nM dasatinib.
# (§1) FIG. 24. Dead Z138 cells upon first and second stimulation with 1 nM CD20-TCB in the presence and absence of 100 nM dasatinib in the assay of FIG. 23, as measured by flow cytometry. Cells were collected 20h after the first and 24 h after the second stimulation and stained with live dead NIR dye. Mean of technical replicates+/−SD. N=3 donors.
# as §1, with “25.” for “24.”, “upon” for “upon first and”, “collected” for “collected 20h after the first and”, “after” for “after the”, “Three donors D1-D3 (A-C).” for “N=3 donors.”
# A similar re-stimulation experiment was performed with a different TCB, targeting CD20 (CD20-TCB (SEQ ID NOs 28-35, 48-59), 1 nM), and the killing of Z138 target cells measured after the first and second stimulation (FIG. 23).
# SKM-1 tumor cells = experiment: Two-stimulation (ON/OFF) killing assay, PBMCs + CFSE/CTV labelled SKM-1 cells + HLA-A2 WT-1-TCB, FACS; assay type: cell-based, human
# Procedure: FIG. 8. In vitro killing assay set-up and timelines. PBMCs were co-cultured with carboxyfluorescein succinimidyl ester (CFSE) labelled SKM-1 target cells (E:T=5:1) and 10 nM HLA-A2 WT-1-TCB for 20h. Activated PBMCs were washed and restimulated on fresh, CTV labelled SKM-1 target cells (E:T=5:1) and 10 nM HLA-A2 WT-1-TCB in the presence or absence of 100 nM dasatinib.
# FIG. 10. SKM-1 target cell viability upon first stimulation with 10 nM HLA-A2 WT-1-TCB in the absence of dasatinib (left) and upon second stimulation with 10 nM HLA-A2 WT-1-TCB in the presence of 100 nM dasatinib (right). Target cell viability was measured by FACS after 44h in the assay of FIG. 8. Dead CFSE labelled SKM-1 cells were gated on positive near infrared (NIR) cells (left side). Dead CTV labelled SKM-1 cells were gated on positive NIR cells (right side).
# FIG. 11. HLA-A2 WT-1-TCB dose response for dead CFSE and CTV SKM-1 cells used for first and second stimulation in the presence and absence of dasatinib in the assay of FIG. 8. Mean+/−SEM of 3 donors, two-tailed paired t test (for each concentration), 2 tailed p values: 0.1234 (ns), 0.0332 (*), 0.0021 (**), 0.0002 (***), <0.0001 (****).
# To assess whether dasatinib can efficiently prevent TCB-mediated target cell killing by activated T cells, we set up an in vitro killing assay with two stimulation steps, mimicking an ON/OFF switch. […]
# CD4+ and CD8+ T cells = experiment: CD19-TCB-induced T cell activation (CD69, CD25) in the SUDLH-8 assay; assay type: cell-based, human; details: 100 nM dasatinib, 24 hrs; monohydrate
# Procedure: FIG. 28. […] The expression of CD69 (A) and CD25 (B) on CD4+ T cells was measured by flow cytometry at 24 hrs in the assay described in FIG. 26. Mean of n=3 donors+SD. One way ANOVA, Friedman test, p-value: 0.1234 (ns), 0.0332 (*), 0.0021 (**), 0.0001 (***), <0.0001 (****).
# FIG. 29. […] The expression of CD69 (A) and CD25 (B) on CD8+ T cells was measured by flow cytometry at 24 hrs in the assay described in FIG. 26. Mean of n=3 donors+SD. One way ANOVA, Friedman test, p-value: 0.1234 (ns), 0.0332 (*), 0.0021 (**), 0.0001 (***), <0.0001 (****).
# The killing of CTV labelled SUDLH-8 cells was measured by flow cytometry using a Live/Dead Near Infra Red (NIR) dye. […] The expression of CD69 and CD25 were measured on CD4+ (FIG. 28) and CD8+(FIG. 29) T cells by flow cytometry as a readout for T cell activation. […] Lastly, the cytokine levels were analyzed in the supernatants of the assay by Luminex to evaluate the effect of dasatinib on CD19-TCB-induced cytokine release (FIGS. 30 and 31).
# [1] = 146 patients, 100 mg dasatinib QD; cited from earlier work
smiles,measurement,setting,value
"Cc1nc(Nc2ncc(C(=O)Nc3c(C)cccc3Cl)s2)cc(N2CCN(CCO)CC2)n1 [dasatinib, N-(2-chloro-6-methylphenyl)-2-[[6-[4-(2-hydroxyethyl)-1-piperazinyl]-2-methyl-4-pyrimidinyl]amino]-5-thiazole carboxamide monohydrate]",killing of CTV labelled Z138 target cells (ON/OFF versus ON/ON),Z138 target cells,effectively prevented the killing
same,CTV labelled SKM-1 cells alive upon second stimulation,SKM-1 tumor cells; 10 nM HLA-A2 WT-1 TCB in the presence of 100 nM dasatinib,87.6%
same,killing of CTV labelled SKM-1 cells (ON/OFF versus ON/ON),SKM-1 tumor cells; 100 nM dasatinib upon re-stimulation,effectively prevented the killing
same,"CD19-TCB-induced CD4+ and CD8+ T cell activation (CD69, CD25)",CD4+ and CD8+ T cells,prevents CD19-TCB-induced CD4+ T cell activation; also recorded: prevents CD19-TCB-induced CD8+ T cell activation; also recorded: prevented CD4+ and CD8+ T cell activation
same,Cmax,[1],54.6 ng/mL
same,Cmin,[1],2.61 ng/mL

# Reference: patent publication US20220088195A1, “Prevention or mitigation of T-cell bispecific antibody-related adverse effects” (Hoffmann-La Roche Inc., priority 2020, published 2022)
